Earlier results, collected in patent publication US20130071326A1, “UNIVERSAL CELL-DIRECTED THERANOSTICS” (Board of Regents of the University of Texas System, priority 2010, published 2013).

Tested on: tumor
Conditions: conventional DOX treatments, at best

- accumulation of the drug at the tumor: 0.8 to 5 µg
SMILES: COc1cccc2c1C(=O)c1c(O)c3c(c(O)c1C2=O)C[C@@](O)(C(=O)CO)C[C@@H]3O[C@H]1C[C@H](N)[C@H](O)[C@H](C)O1 [DOX, doxorubicin]
